Read-outs that look alike come from different tables or passages of the source.
How the values were obtained:
[1] = test system: Aspergillus fumigatus Afum:00073 = ATCC46645; experiment: Antifungal inhibition zone test, A. fumigatus; format: cell-based; conditions: JMRC-No. ATCC 46645; Supplementary Table 6
Method: (§1) Bioactivity assays. Purified octa-enniatin B, octa-beauvericin and hexa-bassianolide were tested for antiparasitic, antibacterial and antifungal bioactivity together with standards of enniatin B, beauvericin and bassianolide. […]
(§2) Table 5). Antifungal activity was determined against Sporobolomyces salmonicolor […]
(§3) Aspergillus fumigatus Afum:00073 = ATCC46645 (Supplementary Table 6). The bacterial and fungal test strains are deposited at the Jena Microbial Resource Collection at www.jmrc.hki-jena.de. Activity was determined based on inhibition zone diameters in […]
(§4) (antifungal) in accordance to Krieg et al. (2017).10 […]
(§5) p- Colonies in inhibition zone
(§6) P- Many colonies in inhibition zone
(§7) F- Promotion of inhibition zone
(§8) A- Intimation of inhibition
(§9) Supplementary Table 6: Antifungal activity of natural and hybrid CDPs. Activity was analyzed by comparison of inhibition zone diameters.

[2] = test system: Penicillium notatum STI:50164; experiment: Antifungal inhibition zone test, P. notatum; format: cell-based; conditions: JMRC-No. STI:50164; Supplementary Table 6; solvent gave 10
Method: as §1, §2, §3, §4, §5, §6, §7, §8, §9

[3] = test system: Candida albicans STI:25000; experiment: Antifungal inhibition zone test, C. albicans; format: cell-based; conditions: JMRC-No. STI:25000; Supplementary Table 6
Method: as §1, §2, §3, §4, §5, §6, §7, §8, §9

[4] = test system: Sporobolomyces salmonicolor ST:35974; experiment: Antifungal inhibition zone test, S. salmonicolor; format: cell-based; conditions: JMRC-No. ST:35974; Supplementary Table 6; solvent gave 10
Method: as §1, §2, §3, §4, §5, §6, §7, §8, §9

[5] = test system: Trypanosoma cruzi Tulahuen C4 (amastigotes); experiment: microbe, parasite or virus in culture; conditions: for IC50: read-out: IC50 Trypanosoma cruzi; for fold lower IC50 against T. cruzi than the reference drug benznidazole: given as 'up to'
Method: Bioactivity assays. Purified octa-enniatin B, octa-beauvericin and hexa-bassianolide were tested for antiparasitic, antibacterial and antifungal bioactivity together with standards of enniatin B, beauvericin and bassianolide. Antiparasitic activity assays were performed against Trypanosoma brucei rhodesiense STIB 900 (trypomastigotes), Trypanosoma cruzi Tulahuen C4 (amastigotes) and Leishmania donovani MHOM-ET-67/L82 (host free axenic amastigotes) to determine the IC50 values as previously described by Orhan et al. (2010) (Supplementary Table 4).9 Additionally, cytotoxicity was determined with an L6 rat-derived cell line (Supplementary Table 4). […]
Supplementary Table 4: Antiparasitic activity and cytotoxicity of natural and hybrid CDPs. Antiparasitic activity was analyzed against Trypanosoma brucei rhodesiense STIB 900 (trypomastigotes), Trypanosoma cruzi Tulahuen C4 (amastigotes) and Leishmania donovani MHOM-ET-67/L82 (host free axenic amastigotes) as IC50-values.
(§10) Cytotoxicity was analyzed with rat-derived L6 cells. […]

in vitro = conditions: rat
Method: as §1
67/L82 (host free axenic amastigotes) to determine the IC50 values as previously described by Orhan et al. (2010) (Supplementary Table 4).9 Additionally, cytotoxicity was determined with an L6 rat-derived cell line (Supplementary Table 4). […]
Supplementary Table 4: Antiparasitic activity and cytotoxicity of natural and hybrid CDPs. […]
as §10

[6] = test system: Bacillus subtilis STI:10880; experiment: Antibacterial inhibition zone test, B. subtilis; format: cell-based; conditions: JMRC-No. STI:10880; Supplementary Table 5
Method: as §1
(§11) For antibacterial testing, the following strains were used: Bacillus subtilis STI:10880, Psudomonas aeruginosa ST:337721 (multi-resistent), Staphylococcus aureus ST:33793, Enterococcus faecalis ST:33700 (vancomycin-resistent) and Mycobacterium vaccae STI:10670 (Supplementary […]
as §3, §4
(§12) Supplementary Table 5: Antibacterial activity of natural and hybrid CDPs. Activity was analyzed by comparison of inhibition zone diameters. […]
as §5, §6, §7
(§13) A- Intimation of inhibition […]

[7] = test system: Staphylococcus aureus ST:33793; experiment: Antibacterial inhibition zone test, S. aureus; format: cell-based; conditions: JMRC-No. ST:33793; Supplementary Table 5
Method: as §1, §11, §3, §4, §12, §5, §6, §7, §13

[8] = test system: Mycobacterium vaccae STI:10670; experiment: Antibacterial inhibition zone test, M. vaccae; format: cell-based; conditions: JMRC-No. STI:10670; Supplementary Table 5
Method: as §1, §11, §3, §4, §12, §5, §6, §7, §13

[9] = test system: Trypanosoma brucei rhodesiense STIB 900 (trypomastigotes); experiment: microbe, parasite or virus in culture
Method: as §1
(§14) Supplementary Table 4: Antiparasitic activity and cytotoxicity of natural and hybrid CDPs. Antiparasitic activity was analyzed against Trypanosoma brucei rhodesiense STIB 900 (trypomastigotes), Trypanosoma cruzi Tulahuen C4 (amastigotes) and Leishmania donovani MHOM-ET-67/L82 (host free axenic amastigotes) as IC50-values. […]

[10] = test system: Leishmania donovani MHOM-ET-67/L82 (host free axenic amastigotes); experiment: microbe, parasite or virus in culture; conditions: for IC50: read-out: IC50 Leishmania donovani
Method: as §1, §14

[11] = test system: Pseudomonas aeruginosa ST:337721 (multi-resistent); experiment: Antibacterial inhibition zone test, P. aeruginosa; format: cell-based; conditions: JMRC-No. ST:337721; Supplementary Table 5; solvent gave 10
Method: as §1, §11, §3, §4, §12, §5, §6, §7, §13

[12] = test system: Enterococcus faecalis ST:33700 (vancomycin-resistent); format: cell-based; conditions: JMRC-No. ST:33700; Supplementary Table 5
Method: as §1, §11, §3, §4, §12, §5, §6, §7, §13

[13] = Tulahuen C4, amastigotes, Supplementary Table 4 and main text
[14] = MHOM-ET-67/L82, host free axenic amastigotes, Supplementary Table 4 and main text
[15] = read-out: IC50 Trypanosoma b. rhodesiense, STIB 900, trypomastigotes, Supplementary Table 4

Compound	Inhibition zone diameter, Aspergillus fumigatus [1]	Inhibition zone diameter, Penicillium notatum [2]	Inhibition zone diameter, Candida albicans [3]	Inhibition zone diameter, Sporobolomyces salmonicolor [4]	IC50 ([5]; Trypanosoma cruzi, TULAHUEN) [nM]	IC50 (in vitro) [nM]	Inhibition zone diameter, Bacillus subtilis [6]	Inhibition zone diameter, Staphylococcus aureus [7]	Inhibition zone diameter, Mycobacterium vaccae [8]	IC50 ([9]; Trypanosoma brucei, RHODESIENSE|STIB900, read-out: IC50 Trypanosoma b. rhodesiense) [nM]	IC50 ([10]; Leishmania donovani) [nM]	Inhibition zone diameter, Pseudomonas aeruginosa (multi-resistent) [11]	IC50 [5, 13] [nM]	IC50 [10, 14] [nM]	IC50 [9, 15] [nM]	Inhibition zone diameter, Enterococcus faecalis (vancomycin-resistent) [12]	activity against Trypanosoma cruzi (in words) [5]	activity against Leishmania donovani (in words) [10]	activity against Trypanosoma b. rhodesiense (in words) [9]	fold lower IC50 against T. cruzi than the reference drug benznidazole [5]
C[C@@H]1[C@H](O)[C@@H](C)/C=C/C=C/C=C/C=C/C=C/C=C/C=C/[C@H](O[C@@H]2O[C@H](C)[C@@H](O)[C@H](N)[C@@H]2O)C[C@@H]2O[C@](O)(C[C@@H](O)C[C@@H](O)[C@H](O)CC[C@@H](O)C[C@@H](O)CC(=O)O[C@H]1C)C[C@H](O)[C@H]2C(=O)O [Amphotericin B, amphotericin B]	20	18p	20	18p																
O=C(Cn1ccnc1[N+](=O)[O-])NCc1ccccc1 [Benznidazole, benznidazole]					6530	> 380000														
O=C(O)c1cn(C2CC2)c2cc(N3CCNCC3)c(F)cc2c1=O [Ciprofloxacin, ciprofloxacin]							29	0	20p											
Nc1nc(N)nc(Nc2ccc([As]3SCC(CO)S3)cc2)n1 (stereo not drawn) [Melarsoprol, melarsoprol]						28600				7										
CCCCCCCCCCCCCCCCOP(=O)([O-])OCC[N+](C)(C)C [Miltefosine, miltefosine]						138000					576									
CC(C)C[C@H]1C(=O)O[C@H](C(C)C)C(=O)N(C)[C@@H](CC(C)C)C(=O)O[C@H](C(C)C)C(=O)N(C)[C@@H](CC(C)C)C(=O)O[C@H](C(C)C)C(=O)N(C)[C@@H](CC(C)C)C(=O)O[C@H](C(C)C)C(=O)N1C [bassianolide]	0	0	0	0		5110	0	0	12p			0	1390	195	1690	0				
CC(C)[C@H]1OC(=O)[C@H](Cc2ccccc2)N(C)C(=O)[C@@H](C(C)C)OC(=O)[C@H](Cc2ccccc2)N(C)C(=O)[C@@H](C(C)C)OC(=O)[C@H](Cc2ccccc2)N(C)C1=O [beauvericin]		14p	0	0		1940	18	13	27			14P	764	311	1630	18F				
CC(C)[C@H]1C(=O)O[C@H](C(C)C)C(=O)N(C)[C@@H](C(C)C)C(=O)O[C@H](C(C)C)C(=O)N(C)[C@@H](C(C)C)C(=O)O[C@H](C(C)C)C(=O)N1C [enniatin B]	0		0	0		4110	15p	15P	24				2300	719	1050					
CC(C)C[C@H]1C(=O)O[C@H](C(C)C)C(=O)N(C)[C@@H](CC(C)C)C(=O)O[C@H](C(C)C)C(=O)N(C)[C@@H](CC(C)C)C(=O)O[C@H](C(C)C)C(=O)N1C [hexa-bassianolide]	0	0	0	0		6350	10	0	14p				3520	315	1260	0	active	active	active	
CC(C)[C@H]1OC(=O)[C@H](Cc2ccccc2)N(C)C(=O)[C@@H](C(C)C)OC(=O)[C@H](Cc2ccccc2)N(C)C(=O)[C@@H](C(C)C)OC(=O)[C@H](Cc2ccccc2)N(C)C(=O)[C@@H](C(C)C)OC(=O)[C@H](Cc2ccccc2)N(C)C1=O [octa-beauvericin]		0	0	0		1580	0	0	12p			0	533	144	782	0				up to 12 fold
CC(C)[C@H]1C(=O)O[C@H](C(C)C)C(=O)N(C)[C@@H](C(C)C)C(=O)O[C@H](C(C)C)C(=O)N(C)[C@@H](C(C)C)C(=O)O[C@H](C(C)C)C(=O)N(C)[C@@H](C(C)C)C(=O)O[C@H](C(C)C)C(=O)N1C [octa-enniatin B]						3900							1750	70	873					up to 12 fold

From article PMC5674221, “Harnessing fungal nonribosomal cyclodepsipeptide synthetases for mechanistic insights and tailored engineering” (Chemical Science, 2017)
